Measurements: US11891601B2, “Method to enhance the transcription regulation of SUPT4H on genes containing repetitive nucleotide sequences” (National Yang-Ming University, priority 2018, dated 2024)

System: genes with lengthy repetitive nucleotide sequences (Q81-GFP, mutant HTT)
Experiment: RT-qPCR of (CAG)n-GFP / HTT mRNA with SUPT4H siRNA knockdown plus tropolone
Assay type: cell-based
Conditions: together with SUPT4H siRNA; only in the genes with lengthy repetitive nucleotide sequences
Method: ST14A, Hdh^Q7/Q7 and Hdh^Q111/Q111 were maintained in DMEM (HyClone) supplemented with 15% fetal bovine serum at 33° C. with 5% CO2. ST14A^tet is a genetic engineered stable line, which integrated pTet-Off construct in the genome of ST14A cells and could trigger the expression of pTRE2-(CAG)n-eGFP plasmid in the absence of tetracycline. Lipofectamine 2000 (Invitrogen) transfection reagent was used to deliver siRNA or together with pTRE2-(CAG)n-eGFP into cells. 100 nM of SUPT4H siRNA (DHARMACON, ON-TARGET plus SMART pool, L-048866-01) and (DHARMACON, J-086342-10, 5′-[…]-3′ (SEQ ID NO: 1) and 5′-[…]-(SEQ ID NO: 2)) were used to knock-down SUPT4H expression in mice and rat cells, respectively.
For mammalian cells, total RNA was isolated using TRIzol reagent as per manufacturer's instruction (Invitrogen). […] The amount of cDNAs were quantified by StepOnePlus Real-Time qPCR system (Applied Biosystems) and analyzed by the Quantitative-Comparative CT (AACT) program. Rat SUPT4H, eGFP, mouse SUPT4H, and Mouse HTT were measured using corresponding primer sets as indicated in TABLE 3. snRNA U6 was included as a loading control. […]
Please refer to FIG. 6. […] A relative high signal of R-loops was detected in (CAG)7-eGFP, but this signal is not increased by tropolone. […] RNA was extracted and analyzed by real-time RT-qPCR to measure the quantity of (CAG)n-GFP, SUPT4H and snRNA U6. […]

For `O=c1cccccc1O` [Tropolone], the “level of transcriptional reduction by SUPT4H siRNA knockdown upon tropolone treatment” value was “further increased”.
